{"source": "patent US12390441B2", "about": "“Immunomodulating o-het/aryl azalides” (Zoetis Services LLC, priority 2020, dated 2025)", "key": {"TNF-α": {"system": "TNF-α", "assay": "Whole blood assay, LPS stimulation, MSD cytokine detection", "type": "cell-based", "details": "Bos taurus, fresh whole bovine blood"}, "P. multocida 46572": {"system": "P. multocida 46572", "assay": "In vivo mouse lung infection challenge model (murine)", "parameters": "species or system CD-1 female mice", "how_it_was_run": "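CD-1 female mice were challenged intranasally with mid-log P. multocida 46572 (target 5×10^2 CFU/mouse), then given 20 mg/kg subcutaneously in buffered (~pH 5.4) propylene glycol/monothioglycerol/water. Mortality was followed to Day 10, analysed by generalized mixed model and survival analysis; harmonized survival is relative to vehicle and positive controls.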"}, "natural BRD infection": {"system": "natural BRD infection", "assay": "Natural bovine respiratory disease study", "type": "in vivo, beef calves", "details": "14-day observation", "protocol": "(§1) The primary clinical endpoint for efficacy was treatment failure/success over a 14-day observation period. Clinically normal beef calves (150-200 kg) at moderate risk for BRD were dosed on arrival to the feedlot. Animals (N=114/group) received saline (T01), 5 mg/kg M9 (T02) or 10 mg/kg M9 (T03); or Zactran (T04). […] Bacterial isolates were collected at necropsy and MICs were evaluated (Table 4)."}, "[1]": {"system": "Bovine primary cells (PBMCs, PMN/neutrophils) and tissue (trachea, lung) protein homogenates", "assay": "Binding partner identification (NPOT, mass spectrometry)", "details": "as compared to gamithromycin", "method": "To further characterize the direct activity of the compounds of the invention, experiments to identify the drug's direct binding host partners(s) were performed with the aim of identifying the potential biological targets. Bovine primary cells (peripheral blood mononuclear cells [PBMCs] and polymorphonuclear cells [PMN/neutrophils]) and tissue (trachea, lung) protein homogenates were mixed with M9 and the macrolide, gamithromicin as a comparator. Tissue interactions were allowed to form using a heterogeneous assembly method (nematic protein organization technique, NPOT; Inoviem Scientific); and traditional western blots to identify native-structure proteins bound to the compound. Mass spectrometry analysis identified eight proteins involved in the interaction with M9 as compared to gamithromycin. The antibacterial macrolide gamithromycin was used as a comparator to differentiate specific binding to M9. These proteins were considered to be either direct binding partners of the drug or closely involved in the drug:target interaction (Table 6)."}, "[2]": {"system": "M. haemolytica (OSU-012103-BHI)", "details": "10 mg/kg"}, "[3]": {"assay": "PK study, plasma concentration", "details": "10 mg/kg dose"}, "IL-6": {"system": "IL-6", "assay": "Plasma IL-6 biomarker in bovine M. haemolytica challenge"}, "CD163": {"system": "CD163", "assay": "CD163 expression by flow cytometry, blood of treated cattle", "details": "monocytes/macrophages"}, "[4]": {"system": "M. haemolytica (OSU-012103-BHI)", "assay": "In vivo bovine lung infection (intratracheal) challenge model"}, "[5]": {"system": "Lung bacteria isolated at necropsy", "assay": "MIC of recovered isolates, natural bovine respiratory disease study", "protocol": "as §1"}, "[6]": {"details": "H. somni (25) lung isolates at necropsy"}}, "note": "pIC50: −log10 of the molar value. Entries after “also recorded” stand apart in the source; their conditions may differ. Where two headings read alike, the source gives them in different places.", "data": [{"compound": "CCCNC[C@]1(O)[C@H](C)O[C@@H](O[C@H]2[C@H](C)[C@@H](O[C@@H]3O[C@H](C)C[C@H](NC)[C@H]3O)[C@](C)(O)C[C@@H](C)CN[C@H](C)[C@@H](O)[C@](C)(O)[C@@H](CC)OC(=O)[C@@H]2C)C[C@@]1(C)OC", "note": "[Example M9, (2R,3S,4R,5R,8R,10R,11R,12S,13S,14R)-2-ethyl-3,4,10-trihydroxy-13-(((2R,4R,5S,6S)-5-hydroxy-4-methoxy-4,6-dimethyl-5-((propylamino)methyl)-tetrahydro-2H-pyran-2-yl)oxy)-11-(((2S,3R,4S,6R)-3-hydroxy-6-methyl-4-(methylamino)tetrahydro-2H-pyran-2-yl)oxy)-3,5,8,10,12,14-hexamethyl-1-oxa-6-azacyclopentadecan-15-one]", "values": [{"measurement": "pIC50", "setting": "TNF-α", "value": 3.60}, {"measurement": "Mouse survival", "setting": "P. multocida 46572; M9 positive control, 20 mg/kg", "value": "90-100%"}, {"measurement": "clinical efficacy, P. multocida infection in mice", "setting": "P. multocida 46572; mouse, in vivo", "value": "clinically efficacious"}, {"measurement": "Percent failure (treatment failure)", "setting": "natural BRD infection; 5 mg/kg (T02)", "value": 19.3, "unit": "%"}, {"measurement": "Percent failure (treatment failure)", "setting": "natural BRD infection; 10 mg/kg (T03)", "value": 8.8, "unit": "%"}, {"measurement": "proteins involved in the interaction", "setting": "[1]", "value": "eight"}, {"measurement": "lung lesion scores", "setting": "[2]; inhaled or nasal", "value": 29}, {"measurement": "mortality", "setting": "[2]; separate study, vs. saline 38.9%", "value": 13, "unit": "%"}, {"measurement": "maximum plasma concentration", "setting": "[3]", "value": 5, "unit": "µg/mL"}, {"measurement": "IL-6 levels", "setting": "IL-6", "value": "significantly reduced"}, {"measurement": "CD163 expression", "setting": "CD163", "value": "suppressed; also recorded: mitigates the pathologic increase"}, {"measurement": "mortality", "setting": "[4]; No challenge, M9 10 mg/kg (T04)", "value": "0/6"}, {"measurement": "Mortality (%)", "setting": "[4]; second intratracheal challenge study, 10 mg/kg (T05)", "value": 12.5, "unit": "%"}, {"measurement": "MIC50", "setting": "[5]; [6]", "value": 32, "unit": "µg/mL"}, {"measurement": "MIC90", "setting": "[5]; [6]", "value": 32, "unit": "µg/mL"}, {"measurement": "MIC Range", "setting": "[5]; [6]", "value": "8 to 64", "unit": "µg/mL"}, {"measurement": "MIC, BRD bacterial isolates collected at necropsy", "setting": "[5]; some of the isolates", "value": "< 64", "unit": "µg/mL"}]}]}
